Reference: paper PMC6199744, “Development of Chemical Proteomics for the Folateome and Analysis of the Kinetoplastid Folateome” (ACS Infectious Diseases, 2018)
Read-outs that look alike come from different tables or passages of the source.

How the values were obtained:
Format in all cases: binding
[1] = biological target: T1, HeLa cell extract proteins (Homo sapiens, UniProt P47897)
T1 construct: endogenous in cells; host or cells: HeLa cell extract
T1 sequence (P47897 1-775): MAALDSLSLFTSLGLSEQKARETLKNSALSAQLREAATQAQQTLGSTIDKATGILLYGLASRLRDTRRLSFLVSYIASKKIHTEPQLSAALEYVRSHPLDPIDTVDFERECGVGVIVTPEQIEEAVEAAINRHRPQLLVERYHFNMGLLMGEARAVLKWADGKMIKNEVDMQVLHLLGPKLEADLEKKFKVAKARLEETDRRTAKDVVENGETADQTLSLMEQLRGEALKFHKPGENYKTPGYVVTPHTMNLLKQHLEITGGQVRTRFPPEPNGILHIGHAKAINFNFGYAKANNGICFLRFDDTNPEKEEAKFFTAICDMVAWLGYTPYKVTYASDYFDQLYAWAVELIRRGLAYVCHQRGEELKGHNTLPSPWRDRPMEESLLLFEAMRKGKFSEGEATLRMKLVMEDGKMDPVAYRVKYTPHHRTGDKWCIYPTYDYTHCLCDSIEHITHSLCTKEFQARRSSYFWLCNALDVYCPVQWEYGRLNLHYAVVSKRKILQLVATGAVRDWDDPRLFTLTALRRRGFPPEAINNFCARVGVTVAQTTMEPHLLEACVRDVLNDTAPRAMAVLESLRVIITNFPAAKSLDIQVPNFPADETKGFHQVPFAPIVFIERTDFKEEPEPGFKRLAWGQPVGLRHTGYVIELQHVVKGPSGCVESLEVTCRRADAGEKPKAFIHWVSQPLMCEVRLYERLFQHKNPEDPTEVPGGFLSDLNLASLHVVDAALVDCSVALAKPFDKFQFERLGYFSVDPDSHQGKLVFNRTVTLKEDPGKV

[2] = biological target: T2, HeLa cell extract proteins (Homo sapiens, UniProt P49327)
T2 construct: endogenous in cells; host or cells: HeLa cell extract

[3] = biological target: T3, HeLa cell extract proteins (Homo sapiens, UniProt P62820)
T3 construct: endogenous in cells; host or cells: HeLa cell extract

[4] = biological target: T4, HeLa cell extract proteins (Homo sapiens, UniProt P11310)
T4 construct: endogenous in cells; host or cells: HeLa cell extract
T4 sequence (P11310 26-421): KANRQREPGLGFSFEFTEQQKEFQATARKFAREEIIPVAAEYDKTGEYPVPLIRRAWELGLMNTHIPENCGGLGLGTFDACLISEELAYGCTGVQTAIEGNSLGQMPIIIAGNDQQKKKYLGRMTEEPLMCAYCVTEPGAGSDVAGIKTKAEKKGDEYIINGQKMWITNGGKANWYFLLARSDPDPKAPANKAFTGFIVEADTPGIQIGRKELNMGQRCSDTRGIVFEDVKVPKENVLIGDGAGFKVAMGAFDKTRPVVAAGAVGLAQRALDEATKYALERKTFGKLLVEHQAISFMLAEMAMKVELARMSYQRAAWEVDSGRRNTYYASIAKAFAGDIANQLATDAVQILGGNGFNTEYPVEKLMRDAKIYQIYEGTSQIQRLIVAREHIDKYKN

[5] = biological target: T5, HeLa cell extract proteins (Homo sapiens, UniProt P39656)
T5 construct: endogenous in cells; host or cells: HeLa cell extract
T5 sequence (P39656 43-456): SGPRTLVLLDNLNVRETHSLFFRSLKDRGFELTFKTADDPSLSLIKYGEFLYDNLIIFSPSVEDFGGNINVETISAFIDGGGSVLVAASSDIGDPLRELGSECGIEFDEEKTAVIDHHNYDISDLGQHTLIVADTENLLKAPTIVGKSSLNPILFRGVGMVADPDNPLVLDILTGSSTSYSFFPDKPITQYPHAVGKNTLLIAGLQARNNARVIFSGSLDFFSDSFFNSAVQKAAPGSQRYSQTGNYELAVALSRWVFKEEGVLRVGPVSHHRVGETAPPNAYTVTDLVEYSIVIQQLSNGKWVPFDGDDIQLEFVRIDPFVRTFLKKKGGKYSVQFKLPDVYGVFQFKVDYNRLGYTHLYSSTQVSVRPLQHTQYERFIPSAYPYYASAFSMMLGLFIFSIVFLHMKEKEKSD

[6] = biological target: T6, HeLa cell extract proteins (Homo sapiens, UniProt P23284)
T6 construct: endogenous in cells; host or cells: HeLa cell extract

[7] = biological target: T7, HeLa cell extract proteins (Homo sapiens, UniProt Q01518)
T7 construct: endogenous in cells; host or cells: HeLa cell extract

[8] = biological target: T8, HeLa cell extract proteins (Homo sapiens, UniProt Q96EN8)
T8 construct: endogenous in cells; host or cells: HeLa cell extract
T8 sequence (Q96EN8 1-888): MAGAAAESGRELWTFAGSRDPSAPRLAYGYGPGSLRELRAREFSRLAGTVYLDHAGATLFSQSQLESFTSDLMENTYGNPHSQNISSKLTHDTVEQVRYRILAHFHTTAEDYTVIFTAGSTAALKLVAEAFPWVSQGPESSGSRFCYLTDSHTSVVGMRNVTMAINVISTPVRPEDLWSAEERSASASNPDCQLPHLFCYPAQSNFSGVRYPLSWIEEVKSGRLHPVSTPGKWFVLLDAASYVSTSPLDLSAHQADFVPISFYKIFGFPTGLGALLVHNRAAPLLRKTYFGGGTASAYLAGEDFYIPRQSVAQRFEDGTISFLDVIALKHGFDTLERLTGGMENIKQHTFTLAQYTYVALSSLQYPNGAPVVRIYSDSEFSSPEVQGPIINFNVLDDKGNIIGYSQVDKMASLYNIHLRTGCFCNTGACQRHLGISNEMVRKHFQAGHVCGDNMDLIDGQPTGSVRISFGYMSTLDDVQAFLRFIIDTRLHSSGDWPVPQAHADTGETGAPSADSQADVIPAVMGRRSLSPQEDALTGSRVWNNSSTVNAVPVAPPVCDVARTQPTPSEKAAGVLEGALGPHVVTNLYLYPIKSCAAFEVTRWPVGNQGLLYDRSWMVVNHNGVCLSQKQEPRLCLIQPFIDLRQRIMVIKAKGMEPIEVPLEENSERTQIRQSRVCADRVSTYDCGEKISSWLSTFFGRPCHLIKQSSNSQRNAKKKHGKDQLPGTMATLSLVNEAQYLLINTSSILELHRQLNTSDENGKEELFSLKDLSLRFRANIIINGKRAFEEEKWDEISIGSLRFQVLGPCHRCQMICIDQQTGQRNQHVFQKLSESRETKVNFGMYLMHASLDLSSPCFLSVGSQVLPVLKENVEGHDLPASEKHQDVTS

[9] = HeLa, protein PPIB (PEPT[…] B PRECURSOR.)
[10] = HeLa, protein ACADM (HY[…] DKFZP686M24262)

T6 sequence (P23284 34-216): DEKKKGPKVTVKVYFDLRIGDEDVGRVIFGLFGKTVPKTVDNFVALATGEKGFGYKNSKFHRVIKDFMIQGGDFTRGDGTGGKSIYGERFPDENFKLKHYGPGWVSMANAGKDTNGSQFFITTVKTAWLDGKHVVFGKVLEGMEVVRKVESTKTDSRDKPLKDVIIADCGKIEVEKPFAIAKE
T3 sequence (P62820 whole entry): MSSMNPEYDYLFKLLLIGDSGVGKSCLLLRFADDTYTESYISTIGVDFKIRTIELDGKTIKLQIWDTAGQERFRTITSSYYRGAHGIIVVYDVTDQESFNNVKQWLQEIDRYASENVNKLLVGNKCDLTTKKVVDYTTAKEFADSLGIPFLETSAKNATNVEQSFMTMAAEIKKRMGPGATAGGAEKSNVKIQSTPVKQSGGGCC
T7 sequence (Q01518 whole entry): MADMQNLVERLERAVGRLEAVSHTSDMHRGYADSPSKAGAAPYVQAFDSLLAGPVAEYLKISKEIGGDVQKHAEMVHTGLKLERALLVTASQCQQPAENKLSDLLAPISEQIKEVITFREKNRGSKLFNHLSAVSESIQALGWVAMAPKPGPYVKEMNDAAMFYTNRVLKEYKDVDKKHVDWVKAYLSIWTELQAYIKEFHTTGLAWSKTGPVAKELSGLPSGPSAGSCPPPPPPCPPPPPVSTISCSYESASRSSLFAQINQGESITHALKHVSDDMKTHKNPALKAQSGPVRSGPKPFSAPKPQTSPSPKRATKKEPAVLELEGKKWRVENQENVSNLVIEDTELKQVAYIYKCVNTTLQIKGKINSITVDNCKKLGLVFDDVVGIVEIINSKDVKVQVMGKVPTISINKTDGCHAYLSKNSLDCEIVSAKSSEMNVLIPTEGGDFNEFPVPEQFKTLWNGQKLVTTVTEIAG
T2 sequence (P49327 whole entry): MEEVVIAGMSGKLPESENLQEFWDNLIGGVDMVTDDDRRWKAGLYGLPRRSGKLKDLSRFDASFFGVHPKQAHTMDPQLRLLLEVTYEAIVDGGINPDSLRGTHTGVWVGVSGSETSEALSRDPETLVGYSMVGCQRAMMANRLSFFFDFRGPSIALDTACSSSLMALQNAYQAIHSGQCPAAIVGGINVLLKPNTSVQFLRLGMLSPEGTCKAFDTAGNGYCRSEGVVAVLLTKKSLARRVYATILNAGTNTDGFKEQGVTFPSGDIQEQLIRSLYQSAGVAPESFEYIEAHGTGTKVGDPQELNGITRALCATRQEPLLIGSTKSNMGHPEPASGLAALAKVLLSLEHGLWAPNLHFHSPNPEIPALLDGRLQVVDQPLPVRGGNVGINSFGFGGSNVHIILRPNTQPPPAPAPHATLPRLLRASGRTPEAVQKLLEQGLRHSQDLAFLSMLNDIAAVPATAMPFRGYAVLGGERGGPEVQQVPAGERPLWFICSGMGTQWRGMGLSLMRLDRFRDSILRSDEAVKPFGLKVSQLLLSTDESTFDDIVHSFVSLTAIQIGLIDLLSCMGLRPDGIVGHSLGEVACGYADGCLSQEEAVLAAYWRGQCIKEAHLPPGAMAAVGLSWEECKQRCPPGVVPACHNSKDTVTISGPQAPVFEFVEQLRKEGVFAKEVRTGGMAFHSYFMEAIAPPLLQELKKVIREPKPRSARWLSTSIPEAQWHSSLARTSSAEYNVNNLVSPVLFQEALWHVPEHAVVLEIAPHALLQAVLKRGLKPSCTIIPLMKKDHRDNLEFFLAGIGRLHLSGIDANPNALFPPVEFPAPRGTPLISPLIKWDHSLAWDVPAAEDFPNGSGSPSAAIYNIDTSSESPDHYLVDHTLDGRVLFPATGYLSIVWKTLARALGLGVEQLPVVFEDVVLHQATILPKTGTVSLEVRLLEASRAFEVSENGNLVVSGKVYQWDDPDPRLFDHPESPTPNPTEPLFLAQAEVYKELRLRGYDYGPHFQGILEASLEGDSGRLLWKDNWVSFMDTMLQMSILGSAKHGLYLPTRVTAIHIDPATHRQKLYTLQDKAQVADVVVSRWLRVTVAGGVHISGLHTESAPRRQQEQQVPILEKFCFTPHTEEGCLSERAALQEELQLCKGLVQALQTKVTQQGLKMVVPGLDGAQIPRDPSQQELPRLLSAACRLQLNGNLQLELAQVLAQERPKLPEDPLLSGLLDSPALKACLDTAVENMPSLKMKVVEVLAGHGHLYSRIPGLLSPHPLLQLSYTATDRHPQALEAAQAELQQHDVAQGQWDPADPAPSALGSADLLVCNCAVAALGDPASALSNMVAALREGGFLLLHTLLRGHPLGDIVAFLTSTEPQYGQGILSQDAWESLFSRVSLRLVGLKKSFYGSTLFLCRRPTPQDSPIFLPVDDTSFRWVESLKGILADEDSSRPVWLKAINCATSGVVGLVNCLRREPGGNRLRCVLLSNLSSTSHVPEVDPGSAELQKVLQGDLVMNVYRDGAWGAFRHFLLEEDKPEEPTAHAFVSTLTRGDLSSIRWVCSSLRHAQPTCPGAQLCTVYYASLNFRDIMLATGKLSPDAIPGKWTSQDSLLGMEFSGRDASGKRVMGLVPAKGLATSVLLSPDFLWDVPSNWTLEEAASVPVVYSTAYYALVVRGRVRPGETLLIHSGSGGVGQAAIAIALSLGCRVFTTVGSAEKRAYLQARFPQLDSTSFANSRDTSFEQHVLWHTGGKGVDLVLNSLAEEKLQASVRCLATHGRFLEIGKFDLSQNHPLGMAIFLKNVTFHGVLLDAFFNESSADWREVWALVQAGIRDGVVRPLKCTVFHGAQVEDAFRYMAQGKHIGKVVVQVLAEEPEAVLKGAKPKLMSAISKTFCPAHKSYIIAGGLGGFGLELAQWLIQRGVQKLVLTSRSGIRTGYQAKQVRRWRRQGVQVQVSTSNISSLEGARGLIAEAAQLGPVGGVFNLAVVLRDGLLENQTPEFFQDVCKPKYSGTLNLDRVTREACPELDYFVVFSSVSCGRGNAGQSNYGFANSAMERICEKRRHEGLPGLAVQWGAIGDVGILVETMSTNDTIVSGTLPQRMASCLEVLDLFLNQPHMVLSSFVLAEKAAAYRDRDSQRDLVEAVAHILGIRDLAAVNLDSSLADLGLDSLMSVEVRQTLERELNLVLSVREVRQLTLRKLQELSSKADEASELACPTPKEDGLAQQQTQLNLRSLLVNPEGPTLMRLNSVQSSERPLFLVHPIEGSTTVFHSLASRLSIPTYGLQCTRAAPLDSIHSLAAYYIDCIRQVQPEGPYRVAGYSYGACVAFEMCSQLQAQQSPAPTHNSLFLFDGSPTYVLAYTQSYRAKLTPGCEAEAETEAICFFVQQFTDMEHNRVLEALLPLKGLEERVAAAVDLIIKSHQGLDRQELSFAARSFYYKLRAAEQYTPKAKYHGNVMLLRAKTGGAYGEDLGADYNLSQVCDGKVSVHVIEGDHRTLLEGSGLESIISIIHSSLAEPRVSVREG

Row | SMILES | fold changes relative to vehicle control ([1]; HeLa, protein QARS) | fold changes relative to vehicle control ([2]; protein FASN, HeLa) | fold changes relative to vehicle control ([3]; captured protein RAB1A, HeLa) | fold changes relative to vehicle control ([4]; protein ACADM, HeLa) | fold changes relative to vehicle control ([5]; captured protein DDOST, HeLa) | fold changes relative to vehicle control [6, 9] [fold] | fold changes relative to vehicle control ([7]; protein CAP1, HeLa) | fold changes relative to vehicle control ([8]; HeLa, protein MOCOS) | fold changes relative to vehicle control ([1]; HeLa, captured protein QARS) | fold changes relative to vehicle control ([2]; HeLa, captured protein FASN) | fold changes relative to vehicle control ([3]; HeLa, protein RAB1A) | fold changes relative to vehicle control ([5]; HeLa, captured protein DDOST) | fold changes relative to vehicle control ([6]; HeLa, captured protein PPIB) | fold changes relative to vehicle control ([7]; HeLa, protein CAP1) | other results
1 | Nc1nc2cccc(-c3ccccc3)c2n1Cc1ccc(Cl)c(Cl)c1 [compound 3] | 1.01 | 1.17 | 0.91 | 1 | 1.05 | 1.25 | 0.73 | 0.96 | – | – | – | – | – | – | –
2 | NCCOCCOCC(=O)Nc1nc2ncc(CNc3ccc(C(=O)NC(CCC(=O)O)C(=O)O)cc3)nc2c(=O)[nH]1 (centres unmarked) [compound 6] | – | – | – | – | – | – | – | 1.11 | 0.95 | 1.2 | 1.21 | 0.95 | 1.49 | 1.26 | fold changes relative to vehicle control ([4]; HeLa, protein ACADM (HYPOTHETICAL PROTEIN DKFZP686M24262)): 1.43
3 | Nc1nc2[nH]cc(CCc3ccc(C(=O)N[C@@H](CCC(=O)O)C(=O)O)cc3)c2c(=O)[nH]1 [PTX, pemetrexed] | – | – | – | – | – | – | – | – | – | – | – | – | – | – | fold changes relative to vehicle control [1]: 0.9; fold changes relative to vehicle control [2]: 1.09; fold changes relative to vehicle control [3]: 1.17; fold changes relative to vehicle control [4]: 1.3; fold changes relative to vehicle control [5]: 0.85; fold changes relative to vehicle control [6]: 1.11; fold changes relative to vehicle control [7]: 1.12; fold changes relative to vehicle control [8]: 1.01
4 | Nc1nc2c(c(=O)[nH]1)N(C=O)C(CNc1ccc(C(=O)N[C@@H](CCC(=O)O)C(=O)O)cc1)CN2 (some centres unmarked) [LEU, leucovorin] | – | – | – | – | – | – | – | 1.07 | 0.97 | 1.13 | 1.2 | 0.8 | 1 | 1 | fold changes relative to vehicle control [4, 10]: 1.16
5 | CCCCCCOc1ccc(Cc2cnc(N)nc2N)cc1 [compound 1] | 0.99 | 1.07 | 0.74 | 1.17 | 0.81 | 1.37 | 1.19 | 1.03 | – | – | – | – | – | – | –
6 | NCCCNc1ccc(C(=O)NC(CCC(=O)O)C(=O)O)cc1 (centres unmarked) [compound 7] | – | – | – | – | – | – | – | 1.06 | 0.92 | 1.2 | 1.07 | 1.07 | 1.22 | 0.94 | fold changes relative to vehicle control [4, 10]: 1.06
7 | CCCCCCOc1cccc(Cc2cnc(N)nc2N)c1 [compound 2] | 1.16 | 1.25 | 1.19 | 1.75 | 1.1 | 2.04 | 2.26 | 1.11 | – | – | – | – | – | – | –
